Experimental data from patent US11279744B2, “Neuropeptide Y fragment capable of releasing hematopoietic stem cells into blood and treating osteoporosis” (Kyungpook National University Industry-Academic Cooperation …, priority 2017, dated 2022).
Entries after “also recorded” stand apart in the source; their conditions may differ. Non-standard residues stand in square brackets, D forms with d. No end group written: not given here.

Columns and labels:
[1] = test system: hematopoietic stem cell adhesion factors (Sdf-1a, KitI, Angpt1) present in osteoblasts; assay: expression of hematopoietic stem cell adhesion factors in osteoblasts, real-time quantitative PCR; type: cell-based, mouse; details: for expression levels of Sdf-1a, KitI, and Angpt1 in osteoblasts: 10 nM peptide for 3 days, compared to osteoblasts (control) not treated with peptides, fold change
Procedure: All mice used in the experiment were 6 to 8 weeks old mice, C57BL/6 mice, and purchased from Jackson Laboratory (Bar Harbor, Me., USA). NPY (21-28) (SEQ ID NO: 1), NPY (24-31) (SEQ ID NO: 2), NPY (29-36) (SEQ ID NO: 3), NPY D25 (21-28) (SEQ ID NO: 4), NPY D26 (21-28) (SEQ ID NO: 5), NPY D25, 26 (21-28) (SEQ ID NO: 6), NPY (21-36) (Osteopep2) (SEQ ID NO: 7) were prepared from Anygen. Full length NPY (SEQ ID NO: 8) was purchased from Bachem. 10 nM of each peptide was diluted in each medium and injected for in vitro experiments. The NPY D^25(21-28) refers to a peptide in which arginine, the fifth amino acid of the amino acid sequence of NPY (21-28), is modified to D-type, the NPY D^26(21-28) refers to a peptide in which the sixth amino acid histidine is modified to D-form, and the D^25,26(21-28) refers to a peptide in which both the fifth and sixth amino acids are modified to D-form, respectively.
Four to six weeks old C57BL/6 mice were sacrificed after anesthesia, and then tibias and femurs were dissected. Bone marrow was harvested from tibias and femurs and single cell suspensions were obtained using a 40 μm cell strainer (Becton-Dickinson LAβware, Franklin Lakes, N.J.). Approximately […] were dispensed into 75-cm 2 flasks containing mesenchymal stem cells Stimulatory Supplements with antibiotics (Stem Cell Technologies, Inc) and MesenCult™ MSCBasal medium. The cells were incubated for 1 week and further incubated for 3 weeks with StemXVivo Osteogenic/Adipogenic Base Media (R & D systems) supplemented with StemXVivo Osteogenic supplement (20×) and penicillin-streptomycin (100×) for differentiation into osteoblasts.
Real-time quantitative PCR was used to measure expression levels of hematopoietic stem cell adhesion factors (Sdf-1a, KitI, Angpt1) present in osteoblasts. Total RNA was extracted from cell eluate and bone marrow cells using the RNeasy Plus mini kit (Qiagen, Korea, Ltd), and cDNAs were synthesized from 5 μg total RNA using a kit in Clontech (Mountain View, Calif.). In addition, using a Corbett research RG-6000 real-time PCR instrument, Real-time quantitative PCR was performed at 95° C. for 10 minutes; at 95° C., for 10 seconds; at 58° C., for 15 seconds; at 72° C. for 20 seconds as one cycle, and 40 cycles were repeated.
First, bone marrow was harvested from 4 to 6 weeks old C57BL6 mice, and mesenchymal stem cells (BM-MSCs) in bone marrow were collected, and then cultured for 3 weeks in osteoblast differentiation induction medium for the differentiation into osteoblasts. After 28 days, each peptide was treated with 10 nM for 3 days, and bone cells were collected and examined for expression levels of three adhesion factors by real-time quantitative PCR. Osteopep2 and its parent NPY were used as positive controls.

[2] = test system: animal models of osteoporosis; assay: Micro CT bone density in animal models of osteoporosis; type: in vivo, mouse; details: OVX mice, 50 μg/kg i.p. twice a day for 4 weeks; femur microCT; compared to PBS
Procedure: To make an osteoporosis model, 10-18 12 weeks old female mice per group underwent ovarian ablation. A week later, 50 μg/kg of NPY(21-28), NPY D^25(21-28), NPY D^26(21-28), NPY D^25,26(21-28), Osteopep2, NPY and 100 μl of PBS(Gibco) were intraperitoneally administered twice a day for 4 weeks at 12 hour intervals. Alendronate (Sigma), used as a competitive drug, was intraperitoneally administered once a week for 4 weeks at a dose of 50 μg/kg. As a control group, only Sham model of osteoporosis was performed by subcutaneous dissection of female mouse. Mice were placed in experimental groups using the Block randomization method, and all mouse experiments were approved through the Kyungpook National University Institutional Animal Care and Use Committee. The femurs were separated from the mouse and refrigerated in 80% ethanol, and in order to measure change of bone density, the bone volume/total volume and trabecular thickness were measured by analyzing the area between 0.7 mm and 2.3 mm from the growth plate baseline with the Quantum FX microCT Imaging System. Femurs were separated from mice after the last administration of NPY (21-28) at 4 weeks. To determine the change of bone density, bone density (bone volume/total volume) and bone tissue thickness (trabecular thickness) were measured with the Quantum FX microCT Imaging System. Femurs were separated from mice after the last administration of NPY D^25(21-28), NPY D^26(21-28), and NPY D^25,26(21-28) at 4 weeks. To determine the change of bone density, bone density (bone volume/total volume) and bone tissue thickness (trabecular thickness) were measured with the Quantum FX microCT Imaging System.

[3] = test system: osteoblasts in bone marrow; assay: H & E staining of osteoblasts in bone marrow of osteoporosis animal models; type: in vivo, mouse; details: OVX mice, 50 μg/kg i.p. twice a day for 4 weeks; compared to PBS
Procedure: To make an osteoporosis model, 10-18 12 weeks old female mice per group underwent ovarian ablation. A week later, 50 μg/kg of NPY(21-28), NPY D^25(21-28), NPY D^26(21-28), NPY D^25,26(21-28), Osteopep2, NPY and 100 μl of PBS(Gibco) were intraperitoneally administered twice a day for 4 weeks at 12 hour intervals. Alendronate (Sigma), used as a competitive drug, was intraperitoneally administered once a week for 4 weeks at a dose of 50 μg/kg. As a control group, only Sham model of osteoporosis was performed by subcutaneous dissection of female mouse. Mice were placed in experimental groups using the Block randomization method, and all mouse experiments were approved through the Kyungpook National University Institutional Animal Care and Use Committee.
The femurs were separated from the mice and fixed in 4% paraformaldehyde for 24 hours, and tissue was decalcified in 10% EDTA for 5 weeks. It was then dehydrated with a series of diluted alcohols, paraffinized, and prepared into […] paraffin sections.
For H & E staining, the deparaffinized sections were stained with Harris hematoxyline for 8 minutes, washed with distilled water, and stained with Eosin for 1 minute.
Histomorphometric analysis was performed using the OsteoMeasure program (Extensive interactive Bone Histomorphometry Analysis System).
After the last administration of 4 weeks of NPY (21-28), the femurs were separated from the mice, and the number of osteoblasts in bone marrow was measured by H & E staining.
After the last administration of 4 weeks of NPY D^25(21-28), NPY D^26(21-28), and NPY D^25,26(21-28), the femurs were separated from the mice and the number of osteoblasts in bone marrow was measured by H & E staining.

Substance	expression levels of Sdf-1a, KitI, and Angpt1 in osteoblasts [1]	bone tissue thickness (trabecular thickness) [2]	percentage of bone density (BV/TV) [2]	number of osteoblast (Number of osteoblast/Bone surface) [3]	osteoblast surface (Osteoblast surface/Bone surface) [3]	amount of Angpt1 expression in osteoblasts, compared with NPY (21-28) ([1]; 10 nM peptide, osteoblasts)
NPY D^25(21-28): peptide in which arginine, the fifth amino acid of the amino acid sequence of NPY (21-28), is modified to D-type (YSAL[dR]HYI)	decreased	increased; also recorded: equal to or higher than that of NPY (21-28)	increased; also recorded: equal to or higher than that of NPY (21-28)	increased	increased	
NPY D^25,26(21-28): peptide in which both the fifth and sixth amino acids of NPY (21-28) are modified to D-form (YSAL[dR][dH]YI)	decreased	increased; also recorded: equal to or higher than that of NPY (21-28); also recorded: best effect	increased; also recorded: equal to or higher than that of NPY (21-28); also recorded: best effect	increased	increased	further reduce the amount of Angpt1 expression than NPY (21-28)
YSALRHYI [NPY (21-28)]	decreased	better than that of the Osteopep2 and NPY	better than that of the Osteopep2 and NPY	increased; also recorded: better than that of Osteopep2	increased; also recorded: better than that of Osteopep2	
